According to patent publication US9593305B2, “Differentiation of pluripotent stem cells” (Janssen Biotech, Inc., priority 2008, dated 2017):

Test system: H1 human embryonic stem cells
Experiment: Bioassay validation: activin A titration with or without Wnt3a, cell number and SOX17 intensity (Example 2)
Format: cell-based
Settings: with 20 ng/ml Wnt3a days 1-2, four-day assay
Source text: Activin A is an important mediator of differentiation in a broad range of cell types, including differentiation of embryonic stem cells to definitive endoderm. […] A bioassay that measures this differentiation in human embryonic stem cells was adapted in miniaturized format to 96-well plates for screening purposes. Validation was completed using treatment with commercial sources of activin A and Wnt3a recombinant proteins and measuring protein expression of the transcription factor SOX17, considered to be a representative marker of definitive endoderm.
Briefly, clusters of H1 human embryonic stem cells were grown on reduced growth factor […]™ (Invitrogen; Cat #356231)-coated tissue culture plastic. Cells were passaged using collagenase (Invitrogen; Cat #17104-019) treatment and gentle scraping, washed to remove residual enzyme, and plated in a ratio of 1:1 (surface area) on reduced growth factor […]™-coated 96-well black plates (Packard ViewPlates; Perkin Elmer; Cat #6005182). […]
Imaging was performed using an IN Cell Analyzer 1000 (GE Healthcare) utilizing the 51008bs dichroic for cells stained with Hoechst 33342 and Alexa Fluor 488. […] Segmentation for the nuclei was determined based on gray-scale levels (baseline range 100-300) and nuclear size. […]

Activin A: recombinant human activin A (PeproTech), TGF-beta family member
EC50 for induction of SOX17 expression: 0.03 to 0.05 µg/mL | Optimal activin A effects for induction of SOX17 expression (concentration range): 100 to 200 ng/mL
